Data from patent US20100004403A1, “High-Molecular Weight Conjugate of Combretastatins” (priority 2006, published 2010).

What was measured:
[1] = test system: Mouse colon cancer, Colon26; test: Antitumor effect, Test Example 3: subcutaneously transplanted Colon26 in mice, single intravenous administration; format: in vivo, mouse (female CDF1 mice); settings: 200 mg/kg (as combretastatin A-4), single i.v.
Method: (§1) Mouse colon cancer, Colon26, maintained by serial subcutaneous subculture in mice was minced into about 1-mm square fragments, and the fragments were subcutaneously transplanted on the dorsal part of female CDF1 mice with a trocar. Seven days after tumor transplantation, the high-molecular weight conjugate of the present invention (compound 2 and compound 3) or a control drug (combretastatin A-4 phosphoric acid ester) synthesized by a method according to Non-Patent Document 1 was administered a single time intravenously to the mouse tail vein, at a dose respectively calculated on the basis of combretastatin A-4. The control is a group not given the drug. Compound 2, compound 3 and the control drug were all dissolved in a 5% glucose injection solution and used. After the administration, the major axis (L mm) and the minor axis (W mm) of the tumor were measured using a caliper, and the volume of tumor was calculated by the formula: (L×W^2)/2.

[2] = test system: Mouse colon cancer, Colon26; test: Antitumor effect, Test Example 2: subcutaneously transplanted Colon26 in mice, single intravenous administration; format: in vivo, mouse (female CDF1 mice); settings: single i.v.
Method: as §1, with “2-mm” for “1-mm”, “1)” for “2 and compound 3)”, “A-4)” for “A-4 phosphoric acid ester) synthesized by a method according to Non-Patent Document 1”, “1 was” for “2, compound 3 and the control drug were all”, “used. Combretastatin A-4 was dissolved in dimethylsulfoxide and Cremophor EL (manufactured by Sigma-Aldrich Company), and was used after diluted with a 5% glucose injection solution at the time of use.” for “used.”

| Structure (SMILES) | relative tumor volume based on the tumor volume on the day of initiation of administration ([1]; day 0 after administration) | relative tumor volume based on the tumor volume on the day of initiation of administration ([1]; day 2 after administration) | relative tumor volume based on the tumor volume on the day of initiation of administration ([1]; day 4 after administration) | relative tumor volume based on the tumor volume on the day of initiation of administration ([1]; day 7 after administration) | relative tumor volume based on the tumor volume on the day of initiation of administration ([1]; day 9 after administration) | relative tumor volume based on the tumor volume on the day of initiation of administration ([2]; 200 mg/kg (as combretastatin A-4), day 0 after administration) | relative tumor volume based on the tumor volume on the day of initiation of administration ([2]; 200 mg/kg (as combretastatin A-4), day 2 after administration) | relative tumor volume based on the tumor volume on the day of initiation of administration ([2]; 200 mg/kg (as combretastatin A-4), day 4 after administration) | relative tumor volume based on the tumor volume on the day of initiation of administration ([2]; 200 mg/kg (as combretastatin A-4), day 7 after administration) | relative tumor volume based on the tumor volume on the day of initiation of administration ([2]; 200 mg/kg (as combretastatin A-4), day 8 after administration) | relative tumor volume based on the tumor volume on the day of initiation of administration ([2]; 400 mg/kg, day 0 after administration) | relative tumor volume based on the tumor volume on the day of initiation of administration ([2]; 400 mg/kg, day 2 after administration) | relative tumor volume based on the tumor volume on the day of initiation of administration ([2]; 400 mg/kg, day 4 after administration) | relative tumor volume based on the tumor volume on the day of initiation of administration ([2]; 400 mg/kg, day 7 after administration) | relative tumor volume based on the tumor volume on the day of initiation of administration ([2]; 400 mg/kg, day 8 after administration) |
| --- | --- | --- | --- | --- | --- | --- | --- | --- | --- | --- | --- | --- | --- | --- | --- |
| COc1ccc(/C=C\c2cc(OC)c(OC)c(OC)c2)cc1OP(=O)(O)O [Combretastatin A-4 phosphoric acid ester, combretastatin A-4 phosphoric acid ester] | 1.00 | 1.57 | 3.12 | 9.33 | 10.11 | – | – | – | – | – | – | – | – | – | – |
| COc1ccc(/C=C\c2cc(OC)c(OC)c(OC)c2)cc1O [Combretastatin A-4, combretastatin A-4] | – | – | – | – | – | 1.00 | 1.77 | 3.73 | 9.25 | 12.03 | 1.00 | 1.24 | 2.21 | 5.09 | 6.41 |
